How the values were obtained:
rat brain FAAH = biological target: T1, rat brain FAAH (Rattus norvegicus, UniProt P97612); conditions: racemate; read-out: IC50 FAAH, rat brain homogenates; cited from earlier work
T1 construct: the racemate was studied in rat brain homogenates, whereas mouse brain homogenates were used here; from tissue; host or cells: rat brain homogenates
T1 sequence (P97612 1-579): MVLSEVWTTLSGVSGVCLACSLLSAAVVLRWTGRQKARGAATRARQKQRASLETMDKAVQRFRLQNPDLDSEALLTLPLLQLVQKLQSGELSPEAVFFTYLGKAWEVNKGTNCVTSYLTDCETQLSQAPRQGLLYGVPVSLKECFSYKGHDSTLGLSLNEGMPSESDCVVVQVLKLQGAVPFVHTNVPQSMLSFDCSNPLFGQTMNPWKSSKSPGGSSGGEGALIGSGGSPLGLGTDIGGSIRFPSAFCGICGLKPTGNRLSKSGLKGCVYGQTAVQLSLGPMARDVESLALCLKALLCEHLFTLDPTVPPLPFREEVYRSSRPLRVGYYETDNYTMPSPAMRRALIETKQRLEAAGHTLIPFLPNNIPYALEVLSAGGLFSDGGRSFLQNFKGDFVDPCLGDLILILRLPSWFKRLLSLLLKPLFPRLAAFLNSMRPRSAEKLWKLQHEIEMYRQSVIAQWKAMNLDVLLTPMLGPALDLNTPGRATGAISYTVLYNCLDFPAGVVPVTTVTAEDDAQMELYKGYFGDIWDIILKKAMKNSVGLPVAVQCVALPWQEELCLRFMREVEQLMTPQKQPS

RAW 264.7 cells [1] = assay: Lipid profile (prostaglandins, 2-AG, AEA and related lipids) of RAW 264.7 cell extracts, UPLC-MS/MS; assay type: cell-based, mouse; conditions: 30 min
RAW 264.7 cells [2] = assay: [3H]AEA hydrolysis by intact RAW 264.7 cells; assay type: cell-based, mouse; conditions: LPS + INF-γ-treated cells; 100 nM [3H]AEA, 60 min; URB597 1 μM, flurbiprofen and (R)-Flu-AM1 10 μM

Compound	IC50 (rat brain FAAH) [nM]	Effect on basal and LPS + INF-γ-stimulated PGD2 and PGE2 production (RAW 264.7 cells [1]; 10 μM)	Effect on levels of 2-AG in the cell extracts (RAW 264.7 cells [1]; 10 μM, unstimulated and LPS + INF-γ-treated)	Effect on levels of AEA and related N-acylethanolamines in the cells (RAW 264.7 cells [1]; LPS + INF-γ-treated, ionomycin (5 μM) treated cells, URB597 1 μM, flurbiprofen and (R)-Flu-AM1 10 μM)	Effect on hydrolysis of exogenous [3H]AEA by intact cells (RAW 264.7 cells [2])
Cc1cccnc1NC(=O)C(C)c1ccc(-c2ccccc2)c(F)c1 (centres unmarked) [Flu-AM1, 2-(2-fluorobiphenyl-4-yl)-N-(3-methylpyridin-2-yl)propanamide]	440	–	–	–	–
CC(C(=O)O)c1ccc(-c2ccccc2)c(F)c1 (centres unmarked) [Flurbiprofen, flurbiprofen, reference compound]	–	blocked	not affected	did not affect	would not be expected, and this was found to be the case

Source: paper PMC4583449, “Characterisation of (R)-2-(2-Fluorobiphenyl-4-yl)-N-(3-Methylpyridin-2-yl)Propanamide as a Dual Fatty Acid Amide Hydrolase: Cyclooxygenase Inhibitor” (PLoS ONE, 2015)
